Laboratory results as given in a melting point compilation (Tetko et al.; mined from patent text by program, amines drawn as free bases though some values may be those of a salt).

melting point [°C] | SMILES
168 to 170 | Cc1cccc(CN(CCC(=O)O)c2nc(N)nc(Cl)n2)c1
163 to 165 | NC(=S)c1ccc(I)cc1
204 to 209 | O=[N+]([O-])c1cc(-c2nnc(Cl)cc2O)ccc1Cl
148 | CN=C1SCC(O)(c2ccc(Cl)c(S(=O)(=O)NCC(C)OC)c2)N1C (configuration not stated)
187 to 189 | CC(C)On1c(C(C)(C)C)nc2c(N)nc3ccccc3c21
104 to 106 | CCC(=O)CS(=O)(=O)c1ccc(OS(=O)(=O)c2ccc(C)cc2)cc1
101 | C=C(C)c1ccc2cc(OC)ccc2c1
61 to 62 | Cc1ccc(C)c(SCCCCCC(=O)O)c1
53 to 54 | CON=C(C#N)c1ccccc1COc1ccccc1C
195 to 198 | COc1ccc(C2Sc3cc(Sc4ccccc4)ccc3NC(=O)C2O)cc1 (configuration not stated)
145 to 146 | COC(=O)c1ccc(OCCN2CCN(c3cc(Cl)nnc3Cl)CC2)nc1
159 to 162 | Cn1c(-c2ccccc2)c(C(=O)CCn2ccnc2)c2ccccc21
230 to 232 | CC(=O)Nc1ccccc1CCc1ccccn1
127 to 129 | O=S(=O)(NC1CCOCC1)c1ccc(Cl)cc1
137 to 139 | O=C(O)C1CCCN1c1ncccc1[N+](=O)[O-] (configuration not stated)
104 to 105 | CCc1ccccc1CC1CNC(=O)O1 (configuration not stated)
121 to 122 | CC(O)(COc1ccc(-c2ccc(Cl)cc2)cc1)CN1CCCC1 (configuration not stated)
193 to 194 | Cn1c(C(=O)O)c(Oc2ccccc2N)c2ccccc21
102 to 104 | CN(C)C(=S)SC(C[N+](=O)[O-])c1ccccc1Cl (configuration not stated)
112 | CC1(C)C=C(c2cccnc2)c2cc(Cl)c(Cl)cc2OC1
109 to 110 | CC(C)(C)c1ccccc1N1CCN(C(=O)CCC#N)CC1
100 | Cc1ccc(CN(C(=O)Nc2c(C(C)C)cccc2C(C)C)c2ccc(C(C)C)cc2)c(C)c1

melting point [°C] | SMILES
190 to 195 | COc1cc2c(cc1Nc1ncc(Cl)c(Nc3ccccc3S(=O)(=O)N(C)C)n1)CCNC(=O)C2
> 250 | CCOC(=O)c1cccc(-c2cc3c(Cl)ncnc3[nH]2)c1
130 to 131 | CCN1c2ncc(C=Cc3cccc(F)c3)cc2C(=O)N(C)c2ccc(Cl)nc21
58 to 59 | COC(=O)c1ccc(CCCOCCCCCNCC(O)c2cc(Cl)c(N)c(Cl)c2)o1 (configuration not stated)
38 to 42 | COC(=O)CCc1ccc(CBr)cc1
145 | CCOc1ccc(CCNC(=O)C(F)(F)F)cc1S(=O)(=O)N=CN(C)C
126 to 127 | COc1cccc(OC)c1C(=O)P(=O)(C(=O)c1c(C)cc(C)cc1C)c1ccccc1 (configuration not stated)
129 to 132 | OP(O)C(NC(c1ccccc1)c1ccccc1)c1cccnc1 (configuration not stated)
230 to 234 | OC1Oc2ccccc2-n2cnc(-c3noc(C4CC4)n3)c21 (configuration not stated)
169 | O=C(O)C1CSC(c2ccccc2O)N1 (configuration not stated)
81 to 83 | Cc1ccc2ccc3ccccc3c(=O)c2c1
254 to 256 | CS(=O)(=O)c1cc(C(=O)O)cc(NCc2ccccc2)c1Cl
63 to 64 | C#CCCCC(=O)c1cc(C)c(O)c(C(C)(C)C)c1
141 to 143 | CC1(C)SC(c2ccco2)NC1C(=O)O (configuration not stated)
173 to 180 | CC(C)n1cc(C(=O)NCc2ccc(Cl)cc2)c(=O)c2cc(I)sc21
60 to 63.5 | C[Si](C)(C)C#Cc1ccc(O)cc1
146 to 148 | Cc1nc(CN2C(=O)COc3cc(N)ccc32)no1
97 | COc1cccc(CCN2C(=O)c3ccccc3C2(O)c2cccnc2)c1 (configuration not stated)
52 to 53 | CCN(SN(C)C=Nc1ccc(C)cc1C)c1ccccc1
147 to 148 | COc1ccc(Cc2nc(C(C)=O)c[nH]2)cc1
100 to 101 | O=C1OCCC=C1c1ccccc1

The remaining lines, values behind:

SMILES | melting point [°C]
CCCCCC(O)CCc1ccc(CCCCCCCC(=O)O)o1 (configuration not stated) | 43 to 45
COC(=O)c1ccc(-c2ccc(C(CC3CCOCC3)c3ccc(S(=O)(=O)C4CC4)cc3)[nH]2)nc1 (configuration not stated) | 150 to 152
CCCC(=O)Nc1ccc(OCc2nc3cc(F)ccc3s2)cc1 | 201 to 202
CSc1nc2cc(C)nn2c2ncccc12 | 190
Cc1ccc(-c2ncc(OC3SCC(O)C(O)C3O)cc2F)cn1 (configuration not stated) | 184
c1ccc(Nc2nc(-c3cn[nH]c3)c(N3CCCCC3)s2)nc1 | 238
CC(C)(C)OC(=O)N1C(C(=O)O)CSC1c1cccnc1 (configuration not stated) | 167 to 169
COc1cc(OC)c(-c2cccn2C(=O)OC(C)(C)C)cc1/C=C/C(=O)c1ccc(C(=O)O)cc1 | 205 to 207
CCCCCCCCNc1nc(C=O)cs1 | 60 to 62
CC(=O)N1CC(CCN2CC=C(c3c[nH]c4cc(Cl)ccc34)CC2)c2ccccc21 (configuration not stated) | 169 to 170
COc1cc(OC)nc(Oc2cccc(NC(=O)C(C)(C)C)c2C(=O)O)n1 | 192 to 195
CON=C(C1=C(O)C(=O)N(c2ncc(S(=O)(=O)c3ccc([N+](=O)[O-])cc3)s2)C1c1ccc(C(C)C)cc1)c1ccc(C)cc1 (configuration not stated) | 156
C=CC1(CO)OC(OC2C(COCc3ccccc3)OC(OC)C(OCc3ccccc3)C2OCc2ccccc2)C(OC(C)=O)C(OC)C1O (configuration not stated) | 53
CCOC(=O)C1=CC(=O)N=N1 | 235 to 238
Cc1oc(-c2ccc(C(F)(F)F)cc2)cc1CC(=O)O | 123 to 125
CSc1noc(-c2ccc(O)cc2)c1C#N | 194 to 196
CO[C@]1(c2cccc(OCc3ccc4c(ccc(=O)n4C)c3)c2)CCO[C@@H](C)C1 | 88 to 90
CNC(C)=CC(=O)CS(=O)(=O)NC(C)C | 83 to 85
CCSc1nc2c(C(=S)OC)sc(C)c2[nH]1 | 170 to 172
ClCc1coc(-c2ccc(Br)o2)n1 | 90 to 92

SMILES | melting point [°C]
Nc1ncnc2c1ncn2[C@@H]1CO[C@H](CO)[C@@H](O)C1 | 237 to 239
CCCNC(=O)N1N=C(c2ccc([N+](=O)[O-])cc2)c2cc(Cl)ccc2CC1C (configuration not stated) | 186 to 187
CC(=O)NC(C)Cc1cc(C)c(C)cc1CC#N (configuration not stated) | 140 to 141
COc1cc2c(c3c1OC(C)(C)C3)C(c1cccc(N3CCN(CC(N)=O)S3(=O)=O)c1)=NC(C)(C)C2 | 206 to 208
COc1cc2c(=O)c(C)cn3c4cc(Br)ccc4c(c1)c23 | 201 to 204
Nc1ncc(-c2noc(-c3cnn4c(C(F)(F)F)cc(-c5ccc(C(F)(F)F)c(F)c5)nc34)n2)cn1 | 270
CCCCCCCc1ccc(-c2ccc(-c3cc(F)cc(F)c3)cc2)nc1 | 185 to 186
O=C(Nc1cccc(Cl)c1)ONC1=Nc2ccc([N+](=O)[O-])cc2C(c2ccccc2)=NC1 | 123 to 125
CC(=O)OC1CC2=CC=C3C4CCC(C(C)CCCC(C)C)C4(C)CCC3C2(C)C(OC(C)=O)C1 (configuration not stated) | 113 to 114
CCOC(=O)c1cnn(-c2ccc(N)cc2)c1C(F)(F)F | 102 to 103
Cc1nnc2n1-c1ccc(Cl)cc1C(N1CCCCC1)=NC2 | 238 to 243
NS(=O)(=O)c1cc2[nH]c(-c3nc4cc(Cl)c(S(N)(=O)=O)cc4[nH]3)nc2cc1Cl | 360
COc1cccc(C(O)CNC(=C[N+](=O)[O-])NCCCl)c1 (configuration not stated) | 127 to 130
CC(=O)NCc1ccc(CN2CCN(c3ccc(NC(C)=O)cc3)CC2)cc1 | 225 to 226
CC(C)(C)[C@@H]1O[C@@H](O)[C@@H]2[C@H]1C2(C)C | 126
CCC(Oc1c(C)cccc1C)C(=O)OC1CC(O)C=C2C=CC(C)C(CCC3CC(O)CC(=O)O3)C21 (mixture of isomers) | 125 to 127
COc1cccc([C@H]2O[C@H](CC(=O)Nc3cc4c(c(CCC(=O)O)c3)CCCC4)C(=O)N(CC(C)(C)CO)c3ccc(Cl)cc32)c1OC | 160 to 162
Cc1ccn2c(C)c(CCc3ccc4nc(NC(=N)N)oc4c3)nc2c1 | 195 to 196
CCCCNC(=O)c1ccc(F)c2c1CC(N(CCCc1c[nH]c3ccc(F)cc13)C1CCC1)CO2 (configuration not stated) | 106
N#Cc1ccc(-c2ccc3nc(-c4ccc(C#N)cc4)cn3c2)cc1 | 292 to 294

SMILES | melting point [°C]
CC(C)(C(=O)c1ccc(C(=O)c2ccc(C(=O)C(C)(C)N3CCOCC3)cc2)cc1)N1CCOCC1 | 145 to 147
CCOc1cc2c(Nc3cc(OC)c(Cl)cc3Cl)c(C#N)cnc2cc1OCCN1CCN(C)CC1 | 141 to 143
COc1cc(OC)cc(-c2ncn(-c3ccc(C(F)(F)F)cc3)c2-c2ccc(OC)c(O)c2)c1 | 111 to 113
Cc1cc2c(s1)SCCNC2=O | 155 to 156
O=c1oc(=O)n(-c2cccc(F)c2)c2ncccc12 | 164 to 166
CS(=O)(=O)c1ccc(-c2ccc(F)n2-c2ccc(F)cc2)cc1 | 140 to 141
CCOC(=O)C1C(C)(O)CCC(O)C1(C)C (configuration not stated) | 92 to 94
CCN1C(=O)C(C)(C)C(=O)N(C)c2cc(CN(CCc3ccc(C)nc3C)Cc3scnc3C)ccc21 | 136 to 137
COC(=O)c1ccc(-c2cc(C(=O)NC3CC3)cc(F)c2C)c(C(=O)O)c1 | 217 to 222
CC(=O)c1cccc(NC(=O)NC2N=C(C(C)C)c3ccccc3N(CC(=O)N3CC4CCC(CC4)C3)C2=O)c1 (configuration not stated) | 138 to 140
COC(=O)NNC(=O)CC(C)(C)C | 83 to 84.5
CS(=O)(=O)c1ccc(C2=C(c3ccc(F)cc3)CC(C(F)(F)F)(C(F)(F)F)C2)cc1 | 138
O=C(OCc1ccccc1)C1=C(c2ccccc2)C(c2ccccc2)OC1=O (configuration not stated) | 111 to 114
CCOP(=O)(CNCc1ccnc(-c2cc(OC)c(O)c(OC)c2)c1)OCC | 124 to 126
O=C(O)c1cnc2cc(F)c(F)cc2c1 | 290
CC(=O)N1CCc2cc(C3=NNC(=O)CC3C)ccc21 (configuration not stated) | 258 to 261
Cc1cccc(-c2nc(N)sc2-c2ccnc(NCc3ccccc3)c2)c1 | 178 to 179
C/C=C1\OC(=O)c2c(Oc3nc(OC)cc(OC)n3)cccc21 | 163 to 165
COc1cc2nc(N)nc(-c3cccc(I)c3)c2cc1OC | 235 to 242
